Test results published in BindingDB's records for doi:10.3109/14756366.2011.643302 (Centre de Recherche de Gif, 2013).

Key:
[1] = biological target: Protein farnesyltransferase subunit beta/geranylgeranyltransferase type-1 subunit alpha (Homo sapiens, UniProt P49354+P49356); assay: Human FTase Assay
Protocol: Assays were realized on 96-well plates, as described for yeast FTase but octyl-D-glucopyranoside (0.18%) was used instead of CHAPS and the solution contains 5 μLof partially purified human FTase (1.5 mg/mL)7 in 1 mL peptide solution.

[2] = biological target: T1, Protein farnesyltransferase subunit beta/geranylgeranyltransferase type-1 subunit alpha (Saccharomyces cerevisiae (strain ATCC 204508 / S288c), UniProt P22007+P29703); assay: Yeast FTase Assay; details: pH 7.5
T1 sequence (P22007 whole entry): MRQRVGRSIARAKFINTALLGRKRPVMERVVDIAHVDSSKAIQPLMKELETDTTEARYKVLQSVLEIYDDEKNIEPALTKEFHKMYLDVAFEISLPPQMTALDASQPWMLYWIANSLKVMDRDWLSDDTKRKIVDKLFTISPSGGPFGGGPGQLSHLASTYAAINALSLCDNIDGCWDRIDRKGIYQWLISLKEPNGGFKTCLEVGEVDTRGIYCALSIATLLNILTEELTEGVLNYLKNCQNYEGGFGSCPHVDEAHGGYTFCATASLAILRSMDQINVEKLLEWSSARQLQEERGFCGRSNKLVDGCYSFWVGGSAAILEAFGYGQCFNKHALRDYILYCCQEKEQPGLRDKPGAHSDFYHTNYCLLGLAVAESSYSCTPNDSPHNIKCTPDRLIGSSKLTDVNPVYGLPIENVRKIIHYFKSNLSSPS
T1 sequence (P29703 whole entry): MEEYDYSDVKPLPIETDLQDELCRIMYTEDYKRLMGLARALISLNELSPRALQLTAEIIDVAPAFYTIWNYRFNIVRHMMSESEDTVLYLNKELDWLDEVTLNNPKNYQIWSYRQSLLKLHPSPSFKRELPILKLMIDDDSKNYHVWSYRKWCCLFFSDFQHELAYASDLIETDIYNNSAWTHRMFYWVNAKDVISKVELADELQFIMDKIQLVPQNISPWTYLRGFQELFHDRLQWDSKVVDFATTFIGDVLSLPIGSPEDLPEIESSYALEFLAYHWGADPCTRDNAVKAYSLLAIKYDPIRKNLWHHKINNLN
Protocol: Assays were realized on 96-well plates, prepared with Biomek NKMC and Biomek 3000 from Beckman Coulter and read on Wallac Victor fluorimeter from Perkin-Elmer. Per well, 20 μL of farnesyl pyrophosphate (10 μM) was added to 180 μL of a solution containing 2 μL of varied concentrations of potential inhibitors (dissolved in DMSO) and 178 μL of a solution composed by 0.1 mL of partially purified recombinant yeast FTase (2.2 mg/ mL) and 7.0 mL of dansyl-GCVLS peptide (in the following buffer: 5.8 mM DTT, 6 mM MgCl2, 12 μM ZnCl2 and 0.09% (w/v) CHAPS, 53 mM Tris/HCl, pH 7.5). Then the fluorescence development was recorded for 15 min(0.7 second per well, 20 repeats) at 30°C with an excitation filter at 340 nm and an emission filter at 486 nm. Each measurement was realized twice as duplicate ortriplicate.

[3] = biological target: T2, Protein farnesyltransferase alpha subunit/subunit beta (Trypanosoma brucei brucei, UniProt Q9NC76+Q9NC77); assay: T. brucei FTase Assay
T2 sequence (Q9NC77 whole entry): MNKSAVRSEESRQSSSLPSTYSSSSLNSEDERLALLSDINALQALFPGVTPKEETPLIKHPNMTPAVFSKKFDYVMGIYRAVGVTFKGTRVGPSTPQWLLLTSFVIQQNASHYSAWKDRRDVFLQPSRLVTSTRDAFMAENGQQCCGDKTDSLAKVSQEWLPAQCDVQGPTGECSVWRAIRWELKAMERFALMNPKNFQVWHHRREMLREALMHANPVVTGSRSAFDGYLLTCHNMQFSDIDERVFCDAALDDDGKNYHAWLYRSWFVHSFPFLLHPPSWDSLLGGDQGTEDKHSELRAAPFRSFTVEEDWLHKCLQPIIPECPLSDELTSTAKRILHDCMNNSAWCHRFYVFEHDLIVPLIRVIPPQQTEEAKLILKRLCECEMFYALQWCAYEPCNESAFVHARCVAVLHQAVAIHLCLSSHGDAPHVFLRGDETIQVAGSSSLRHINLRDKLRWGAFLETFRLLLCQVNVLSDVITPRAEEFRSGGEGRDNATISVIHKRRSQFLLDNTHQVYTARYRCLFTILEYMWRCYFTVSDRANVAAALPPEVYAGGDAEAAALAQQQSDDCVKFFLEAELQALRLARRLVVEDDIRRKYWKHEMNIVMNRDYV
T2 sequence (Q9NC76 whole entry): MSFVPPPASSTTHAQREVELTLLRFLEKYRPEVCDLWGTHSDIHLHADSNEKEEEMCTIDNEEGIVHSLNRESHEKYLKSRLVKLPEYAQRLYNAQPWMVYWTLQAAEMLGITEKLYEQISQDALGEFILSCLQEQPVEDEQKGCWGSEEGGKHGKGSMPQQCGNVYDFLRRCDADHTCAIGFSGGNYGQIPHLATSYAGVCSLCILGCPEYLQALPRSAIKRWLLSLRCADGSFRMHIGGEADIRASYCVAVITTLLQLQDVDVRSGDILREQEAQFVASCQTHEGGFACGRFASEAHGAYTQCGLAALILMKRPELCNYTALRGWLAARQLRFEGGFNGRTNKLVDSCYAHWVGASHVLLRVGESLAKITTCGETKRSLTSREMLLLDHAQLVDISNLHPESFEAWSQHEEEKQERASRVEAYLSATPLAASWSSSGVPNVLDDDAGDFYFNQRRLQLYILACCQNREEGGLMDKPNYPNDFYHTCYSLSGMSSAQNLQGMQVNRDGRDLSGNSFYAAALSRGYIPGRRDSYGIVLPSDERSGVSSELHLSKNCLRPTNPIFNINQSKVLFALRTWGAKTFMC
Protocol: Assays were realized on 96-well plates, as described for human FTase with the dansylated peptide Dansyl-GCAIM and the solution contains 15 μL of partially purified Tb-FTase (1.0 mg/mL) in 1 mL peptide solution.

Row | Compound | IC50 [1] | IC50 [2] | IC50 [3]
1 | CC(C)Sc1sc(C(=O)O)c(-c2ccc3ccccc3c2)c1C#N [3-(2-Naphthyl)-4-cyano-5-(isopropylthio)thiophene-2-carboxylic acid (1y)] | 4.8 µM | 0.32 µM | 9.7 µM
2 | COC(=O)c1ccc(-c2c(C(=O)O)sc(SC(C)C)c2C#N)cc1 [3-(4-(Methoxycarbonyl)phenyl)-4-cyano-5-(isopropylthio)thiophene-2-carboxylic acid (1p)] | 12.8 µM | 0.085 µM | 14 µM
3 | CC(C)Sc1sc(C(=O)O)c(-c2cccc(Cl)c2)c1C#N [3-(3-Chlorophenyl)-4-cyano-5-(isopropylthio)thiophene-2-carboxylic acid (1b)] | 48 µM | 1.3 µM | 14.5 µM
4 | CC(C)Sc1sc(C(=O)O)c(-c2cccc3oc4ccccc4c23)c1C#N [3-(1-Dibenzofuranyl)-4-cyano-5-(isopropylthio)thiophene-2-carboxylic acid (1gg)] | 15 µM | 1 µM | 3.3 µM
5 | CC(C)Sc1sc(C(=O)O)c(-c2cccc(-c3ccccc3)c2)c1C#N [3-(3-Biphenyl)-4-cyano-5-(isopropylthio)thiophene-2-carboxylic acid (1aa)] | 3.3 µM | 0.64 µM | 5.4 µM
6 | COc1cccc(-c2c(C(=O)O)sc(SC(C)C)c2C#N)c1 [3-(3-Methoxyphenyl)-4-cyano-5-(isopropylthio)thiophene-2-carboxylic acid (1k)] |  | 1.6 µM | 18 µM
7 | COC(=O)c1cccc(-c2c(C(=O)O)sc(SC(C)C)c2C#N)c1 [3-(3-(Methoxycarbonyl)phenyl)-4-cyano-5-(isopropylthio)thiophene-2-carboxylic acid (1q)] | 7 µM | 0.62 µM | 6.9 µM
8 | CC(C)Sc1sc(C(=O)O)c(-c2cccc(F)c2)c1C#N [3-(3-Fluorophenyl)-4-cyano-5-(isopropylthio)thiophene-2-carboxylic acid (1e)] | 23 µM | 0.46 µM | 32 µM
9 | CC(C)Sc1sc(C(=O)O)c(-c2ccccc2)c1C#N [3-Phenyl-4-cyano-5-(isopropylthio)thiophene-2-carboxylic acid (1s)] | 34 µM | 0.61 µM | 42 µM
10 | Cc1ccccc1-c1c(C(=O)O)sc(SC(C)C)c1C#N [3-(2-Tolyl)-4-cyano-5-(isopropylthio)thiophene-2-carboxylic acid (1v)] | > 50 µM | 3.1 µM | > 50 µM
11 | CC(C)Sc1sc(C(=O)O)c(-c2ccc(C(F)(F)F)cc2)c1C#N [3-(4-(Trifluoromethyl)phenyl)-4-cyano-5-(isopropylthio)thiophene-2-carboxylic acid (1g)] |  | 0.58 µM | 
12 | CC(C)Sc1sc(C(=O)O)c(-c2ccc(-c3ccccc3)cc2)c1C#N [3-(4-Biphenyl)-4-cyano-5-(isopropylthio)thiophene-2-carboxylic acid (1z)] | 5.5 µM | 2.7 µM | 32 µM
13 | CC(C)Sc1sc(C(=O)O)c(-c2ccccc2Cl)c1C#N [3-(2-Chlorophenyl)-4-cyano-5-(isopropylthio)thiophene-2-carboxylic acid (1c)] | > 50 µM | 1.4 µM | 37 µM
14 | Cc1cccc(-c2c(C(=O)O)sc(SC(C)C)c2C#N)c1 [3-(3-Tolyl)-4-cyano-5-(isopropylthio)thiophene-2-carboxylic acid (1u)] | 16 µM | 1.4 µM | 34 µM
15 | CC(C)Sc1sc(C(=O)O)c(-c2cccc3ccccc23)c1C#N [3-(1-Naphthyl)-4-cyano-5-(isopropylthio)thiophene-2-carboxylic acid (1x)] | 32 µM | 1.1 µM | 10.5 µM
16 | CC(C)Sc1sc(C(=O)O)c(-c2ccc(F)cc2)c1C#N [3-(4-Fluorophenyl)-4-cyano-5-(isopropylthio)thiophene-2-carboxylic acid (1d)] | 20 µM | 0.27 µM | 29 µM
17 | CSCC[C@H](NC(=O)c1ccc(NC[C@@H](N)CS)cc1-c1ccccc1)C(=O)O [2-{[5-((R)-2-Amino-3-mercapto-propylamino)-biphenyl-2-carbonyl]-amino}-4-methylsulfanyl-butyric acid] |  | 0.00078 µM | 0.01 µM
18 | COc1ccccc1-c1c(C(=O)O)sc(SC(C)C)c1C#N [3-(2-Methoxyphenyl)-4-cyano-5-(isopropylthio)thiophene-2-carboxylic acid (1l)] | > 50 µM | 9.7 µM | 37 µM
19 | CC(C)Sc1sc(C(=O)O)c(-c2ccc(Cl)cc2)c1C#N [3-(4-Chlorophenyl)-4-cyano-5-(isopropylthio)thiophene-2-carboxylic acid (1a)] |  | 0.11 µM | 10.6 µM
20 | Cc1ccc(-c2c(C(=O)O)sc(SC(C)C)c2C#N)cc1 [3-(4-Tolyl)-4-cyano-5-(isopropylthio)thiophene-2-carboxylic acid (1t)] | 21 µM | 0.19 µM | 17 µM
21 | CC(C)Sc1sc(C(=O)O)c(-c2ccccc2F)c1C#N [3-(2-Fluorophenyl)-4-cyano-5-(isopropylthio)thiophene-2-carboxylic acid (1f)] | > 50 µM | 1.3 µM | 46 µM
22 | COc1ccc(-c2c(C(=O)O)sc(SC(C)C)c2C#N)cc1 [3-(4-Methoxyphenyl)-4-cyano-5-(isopropylthio)thiophene-2-carboxylic acid (1j)] |  | 0.25 µM | 8.6 µM
23 | CC(C)Sc1sc(C(=O)O)c(-c2cccc(C(F)(F)F)c2)c1C#N [3-(3-(Trifluoromethyl)phenyl)-4-cyano-5-(isopropylthio)thiophene-2-carboxylic acid (1h)] | 34 µM | 1.6 µM | 19 µM
